# In PubChem BioAssay (NCI):
# Where “and” joins values, the source holds several entries; their conditions need not be identical. Identical values can stand only once.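 Protocol summary: plate cells (96-well), add compound at 5 concentrations, incubate 48 h, interpolate endpoints linearly. At the GI50, growth is halved. TGI: total growth inhibition.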
# Columns and labels:
# Assay in all cases: inhibition of tumour cell growth, NCI panel, 48 h
# [1] = test system: M14 melanoma
# [2] = test system: DLD-1 colon
# [3] = test system: MDA-N
# [4] = test system: MCF7 breast
# [5] = test system: HOP-18 NSCLC
# [6] = test system: CCRF-CEM leukemia
# [7] = test system: KM20L2 colon
# [8] = test system: DMS 114 small cell lung
# [9] = test system: BT-549 breast
# [10] = test system: A549 NSCLC
# [11] = test system: SNB-78 CNS
# [12] = test system: HOP-92 NSCLC
# [13] = test system: HCT-15 colon
# [14] = test system: A498 renal
# [15] = test system: LXFL 529 NSCLC
# [16] = test system: UACC-257 melanoma
# [17] = test system: M19-MEL melanoma
# [18] = test system: SK-OV-3 ovarian
# [19] = test system: ACHN renal
# [20] = test system: T-47D breast
# [21] = test system: K-562 leukemia
# [22] = test system: OVCAR-5 ovarian
# [23] = test system: HT29 colon
# [24] = test system: UO-31 renal
# [25] = test system: PC-3 prostate
# [26] = test system: HCT-116 colon
# [27] = test system: DMS 273 small cell lung
# [28] = test system: NCI-H226 lung
# [29] = test system: KM12 colon
# [30] = test system: NCI-H460 lung
# [31] = test system: DU-145 prostate
# [32] = test system: LOX IMVI melanoma
# [33] = test system: UACC-62 melanoma
# [34] = test system: SK-MEL-2 melanoma
structure (smiles),measurement,setting,value
CC[C@@]1(O)C[C@H](OC2CC(N(C)C)C(OC3CC(O)C(OC4CCC(=O)C(C)O4)C(C)O3)C(C)O2)c2c(cc3c(c2O)C(=O)c2c(O)ccc(O)c2C3=O)[C@H]1C(=O)OC (stereo not given in full),TGI,[1],18.5 nM and 37.4 nM and 152 nM
same,TGI,[2],73.7 nM
same,TGI,[3],2.59 nM
same,TGI,[4],101 nM
same,GI50,[5],11700 nM
same,TGI,[5],24100 nM
same,TGI,[6],12 nM and 47.8 nM
same,GI50,[7],0.0667 nM
same,TGI,[7],78.1 nM and 41 nM and 200 nM
same,GI50,[8],0.291 nM
same,TGI,[8],22 nM and 30.6 nM and 34.7 nM
same,TGI,[9],9.27 nM and 2.76 nM
same,GI50,[10],0.449 nM
same,GI50,[11],3.11 nM
same,TGI,[12],35.3 nM and 71.3 nM and 92 nM
same,TGI,[13],5.81 nM and 29.8 nM
same,TGI,[14],14.2 nM and 24.5 nM
same,GI50,[15],0.0112 nM
same,GI50,[16],< 0.1 nM
same,GI50,[17],0.0125 nM
same,TGI,[17],12.1 nM and 12.9 nM and 33.6 nM
same,GI50,[18],22.1 nM
same,TGI,[19],16.4 nM and 25.8 nM and 22.5 nM
same,TGI,[20],5.69 nM and 12.1 nM
same,TGI,[21],119 nM
same,TGI,[22],22.1 nM and 65 nM
same,TGI,[23],16.2 nM [middle of 4 runs]
same,TGI,[24],0.508 nM and < 0.1 nM
same,TGI,[25],6.2 nM
same,GI50,[26],0.054 nM
same,TGI,[26],< 0.1 nM
same,TGI,[27],14 nM and 19.8 nM
same,TGI,[28],6.41 nM and 27.5 nM
same,TGI,[29],31.4 nM and 12.6 nM and 113 nM
same,GI50,[30],0.0541 nM
same,TGI,[30],0.343 nM and < 0.1 nM
same,TGI,[31],38 nM
same,TGI,[32],0.668 nM
same,TGI,[33],12 nM and 11.8 nM and 20.5 nM
same,TGI,[34],16.6 nM and 19.8 nM and 24.3 nM
